Test results: patent US20230158151A1 (NURIX THERAPEUTICS, INC., priority 2021, published 2023)
Where two headings read alike, the source gives them in different places.

Legend:
[1] = Mouse PK Analysis (plasma LC/MS/MS, noncompartmental PK parameters); type: in vivo; parameters: AUC(0-t): concentration or dose not given beside the values; conditions: mice; for AUC(0-t) / Cmax / Tmax: mouse, oral administration, plasma
Protocol: Compounds 30 and 29 were administered to mice orally. After 6 hours or 24 hours, splenocytes cells were harvested. ITK was evaluated by Western blotting. Plasma concentrations were determined by LC/MS/MS. Plasma samples were protein precipitated by addition of 100 μl of acetonitrile containing 50 ng/ml of internal standard. The resulting mixture was vortexed and centrifuged at 4000 RPM for 5 minutes. An aliquot of the resultant supernatant (75 μl) was added to 75 μl of 0.1% formic acid in water to constitute the final sample for injection. Samples were injected on a Shimadzu Exion LC Binary Gradient AD Pump HLPC system connected to a Sciex QTRAP 6500+ mass spectrometer. Five μl of sample was injected onto a Waters Acquity UPLC BEH C18 column 130A (2.1×30 mm, […]) at 40° C. utilizing a flow rate of 700 μl/minute. Mobile Phase A was 0.1% formic acid in water and mobile phase B was 0.1% formic acid in acetonitrile. A linear gradient of 15-95% B over 1.0 minute was used. The mass spectrometer was operated in positive ion electrospray mode with multiple reaction monitoring for maximum sensitivity. Sciex Analyst software (version 1.6.3) was used for LC/MS/MS instrument control and acquisition. Compound concentration was determined against a standard curve of internal standard versus compound peak area ratio. Noncompartmental PK parameters were determined using Phoenix 32 software (version 8.2.0.4383) from Certara. Plasma concentrations from the LC/MS/MS analyses, dose, route of administration, and desired units were utilized for PK parameter calculations. […] FIG. 3C provides the concentration over time of compound 30 following in vivo oral administration in the 6 hour and 24 hour assays.
Cmax, Tmax and AUClast were all calculated using a WinNonLin Phoenix 64 v 8.2.0.4383. Using non-compartmental analysis, Tmax, Cmax and AUClast were determined as follows:
Tmax—Time of maximum observed concentration. Cmax—Maximum observed concentration, occurring at time Tmax, as defined above. AUClast—Area under the curve from the time of dosing to the time of the last measurable (positive) concentration (Tlast).

[2] = target: T1, ITK (Homo sapiens, UniProt Q08881); assay: ITK Degradation HiBiT Assay; type: cell-based
T1 construct: Compounds provided herein were assayed in vitro with ITK HiBit cell lines; endogenous in cells; host or cells: Molt4 (ATCC CRL-1552 [sic]), monoclonal clone 1C10
T1 sequence (Q08881 1-620): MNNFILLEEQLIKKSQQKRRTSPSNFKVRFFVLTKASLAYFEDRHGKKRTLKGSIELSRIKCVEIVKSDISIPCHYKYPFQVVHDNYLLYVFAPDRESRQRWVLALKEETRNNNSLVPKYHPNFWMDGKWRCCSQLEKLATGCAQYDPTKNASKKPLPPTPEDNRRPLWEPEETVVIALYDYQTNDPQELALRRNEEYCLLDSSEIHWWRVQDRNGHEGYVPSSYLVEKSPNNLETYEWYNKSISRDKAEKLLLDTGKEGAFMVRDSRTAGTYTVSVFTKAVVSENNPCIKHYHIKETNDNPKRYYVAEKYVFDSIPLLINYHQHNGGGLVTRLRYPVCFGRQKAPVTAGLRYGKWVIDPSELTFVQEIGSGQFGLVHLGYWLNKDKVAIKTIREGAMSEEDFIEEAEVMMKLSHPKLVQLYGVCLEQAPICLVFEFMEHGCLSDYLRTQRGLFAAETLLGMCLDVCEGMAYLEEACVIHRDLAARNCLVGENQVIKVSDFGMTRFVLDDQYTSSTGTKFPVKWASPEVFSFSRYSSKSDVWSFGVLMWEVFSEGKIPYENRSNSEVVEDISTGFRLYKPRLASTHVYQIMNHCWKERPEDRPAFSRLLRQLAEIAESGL
Protocol: Compounds provided herein were assayed in vitro with ITK HiBit cell lines. Compound dilution series (11-point, 5 fold dilutions in DMSO, columns 2-12 with replicate in rows A/B, C/D, E/F, G, H at 2000× the final required concentrations were prepared in 96 well plate (Falcon, cat. no. 353077). Column 1, rows A-H were control DMSO. The 2000× solutions ranged from 2 mM to 1.024 nM (final assay concentration range 1 μM to […]). The 2000× solutions were added to cells in […], for a final DMSO concentration of 0.5% and final assay compound concentration of 1×. For the cells, C-terminal HiBiT-tagged Molt4 cells (ATCC CRL-1552, monoclonal cell line clone 1C10) were plated at 1×10^6 cells/mL, 100 μL/well ([…]) in complete RPMI (10% FBS, 1% L-glutamine). The cells were incubated with compound 32 and compound 30 for 4 hrs at 32° C./6% CO2.
Following incubation, 100 μL of complete Nano-Glo HiBiT Lytic Detection Reagent (Nano-Glo HiBiT Lytic Buffer with 1:50 Nano-Glo HiBiT Lytic Substrate and 1:100 LgBiT Protein; Promega cat. no. N3O40) was added. Cells were further incubated for 10 min at room temperature (RT). Luminescence units (LU) were read on an EnVision plate reader (Perkin Elmer, 0.1 sec per well). Percent ITK remaining per sample was calculated as follows: […]
Using Graphpad Prism, % ITK remaining values were plotted as a function of compound concentration. To determine DC50 and Dmax values, resulting curves were fit to the Prism curve-fitting equation “log(inhibitor) vs response−Variable slope (four parameters)” (reported best fit value IC50 used as DC50). ITK was measured with antibody-based MSD (Meso-Scale Discovery) assays shown below.

[3] = MOLT-4, C-terminal HiBiT-tagged Molt4 cells, 4 hrs incubation, read-out: HiBiT DMax (%)

SMILES | AUC(0-t) [1] | Cmax [1] | Tmax [1] | Dmax ([2]; ITK degradation in HiBiT cell line, FIG. 1, read-out: Dmax values (FIG. 1)) | Dmax [2, 3] | detection in plasma ([1]; oral, 6 hour and 24 hour assays) | DC50 ([2]; C-terminal HiBiT-tagged Molt4 cells, 4 hrs incubation)
CN(C(=O)CC1CCN(c2ccc(C3CCC(=O)NC3=O)cn2)CC1)c1ccc2cc(-c3n[nH]c4c3C[C@@H]3C(F)(F)[C@]3(C)C4)[nH]c2c1 (some centres unmarked) [Compound 27] | 1.69 µM·h | 609 nM | 1 h |  |  |  | 
C[C@@H](C(=O)N(C)c1ccc2cc(-c3n[nH]c4c3C[C@@H]3C(F)(F)[C@]3(C)C4)[nH]c2c1)N1CCN(CC2CCN(c3ccc(C4CCC(=O)NC4=O)cn3)CC2)CC1 (stereo partly drawn) [Compound 30, (2S)—N-(2-((4aS,5aR)-5,5-difluoro-5a-methyl-1,4,4a,5,5a,6-hexahydrocyclopropa[f]indazol-3-yl)-1H-indol-6-yl)-2-(4-((1-(5-(2,6-dioxopiperidin-3-yl)pyridin-2-yl)piperidin-4-yl)methyl)piperazin-1-yl)-N-methylpropanamide] | 1.25 µM·h | 870 nM | 2 h | 90 to 100% | 85% | detected in plasma through 6 and 24 hours | 
CC1(C)CCc2c(-c3cc4ccc(C(=O)N5CCN(CC6CCN(c7ccc(C8CCC(=O)NC8=O)nc7)CC6)CC5)cc4[nH]3)n[nH]c2C1 (centres unmarked) [Compound 42, 3-(5-(4-((4-(2-(6,6-dimethyl-4,5,6,7-tetrahydro-1H-indazol-3-yl)-1H-indole-6-carbonyl)piperazin-1-yl)methyl)piperidin-1-yl)pyridin-2-yl)piperidine-2,6-dione] | 28 µM·h | 5100 nM | 2 h |  | 88% |  | 3 pM
